# From US20240393340A1, “PROGNOSIS AND PREDICTIVE BIOMARKERS AND BIOLOGICAL APPLICATIONS THEREOF” (INSTITUT GUSTAVE ROUSSY, priority 2013, published 2024)
# Where two headings read alike, the source gives them in different places.
# Legend:
# A2058 [1] = assay: Short-term growth-inhibition assay (Example 1); assay type: cell-based; conditions: A2058; short-term and long-term proliferation assays, Example 1
# Experimental: (§1) FIGS. 1A-1B: Short-term growth-inhibition assay of a panel of melanoma cell lines including BRAF (V600E) cell lines and an NRAS (Q61R) mutated cell line. FIG. 1A. Cells were treated with increasing concentrations of N-[3-[(5-Chloro-1H-pyrrolo[2,3-b]pyridin-3-yl)carbonyl]-2,4-difluorophenyl]-1-propanesulfonamide (PLX-4720) for 72 h and cell viability was determined using CellTiter-Blue by measuring the absorbance at 540 nm in a microplate reader. Error bars show data +standard error. Means were derived from four replicates (n=4). FIG. 1B. Long-term colony formation assay of the indicated cells. Cells were grown in the absence or presence of PLX-4720 at the indicated concentrations for 15-20 days. For each cell line, all dishes were fixed at the same time, stained and photographed. […]
# (§2) The inventors quantified the effect of exposing these cell lines to PLX-4720 on the half-maximum inhibitory concentration (IC50) (Table 1).
# Mel624 [2] = assay: Short-term growth-inhibition assay (Example 1); assay type: cell-based; conditions: Mel624; short-term and long-term proliferation assays, Example 1
# Experimental: as §1, §2
# A2058 [3] = assay: WST-1 cell proliferation assay (Example 2); assay type: cell-based; conditions: for IC50: A2058, 48 h; for sensitivity of the cell line compared to other cell lines (e.g. A375, Mel888): A2058, short-term and long-term proliferation assays, Example 2
# Experimental: (§3) Cell viability was determined using the WST-1 cell proliferation assay. Data are means±s.d. (n=3). FIG. 7B: Long-term colony formation assay of the indicated cell lines. Cells were grown in the absence or presence of vemurafenib at the indicated concentrations for two weeks. For each cell line, all dishes were fixed at the same time, stained and photographed.
# (§4) Cell viability was determined using the WST-1 cell proliferation assay. Data are means±s.d. (n=4). […] The upper left region of the figure represents increasing degrees of synergy. The minimum and maximum Bliss index values were shown as an interval within square brackets under each isobologram. The Bliss index was calculated as the ratio Observed/Expected where an index=1, […] and >1 indicates additive, antagonistic and synergistic effects, respectively.
# (§5) Cell proliferation was measured using a WST-1 reagent (Roche Applied Science, IN, USA). Melanoma cells were plated (5000 cells per well) in 96-well tissue culture plates. After 24 h, the cells were treated with drugs or DMSO at the indicated concentrations, in triplicates. WST-1 reagent was added to the wells and incubated at 37° C. for 2 h before and after the treatment period of 48 h. […] Cell proliferation is expressed as percent of the absorbance compared to mock-treated cells.
# (§6) For clonogenic assays, cells were plated at low density (1×10^3 cells per well in a 6-well tissue culture plates) in fresh media. After 24 h, cells were treated with drugs or DMSO at the indicated concentrations, in duplicates. After 14 days cells were stained with 0.5% (w/v) crystal violet in 70% ethanol and the number of colonies was counted.
# Mel624 [4] = assay: WST-1 cell proliferation assay (Example 2); assay type: cell-based; conditions: for sensitivity of the cell line compared to other cell lines (e.g. A375, Mel888): Mel624, short-term and long-term proliferation assays, Example 2
# Experimental: as §3, §4, §5, §6
# Mel10 = assay: WST-1 cell proliferation assay (Example 2); assay type: cell-based
# Experimental: as §3, §5
# A375 = assay: WST-1 cell proliferation assay (Example 2); assay type: cell-based
# Experimental: as §3, §5
# Mel888 = assay: WST-1 cell proliferation assay (Example 2); assay type: cell-based
# Experimental: as §3, §5
# SKMEL 28 = assay: WST-1 cell proliferation assay (Example 2); assay type: cell-based
# Experimental: as §3, §5
# melanoma = conditions: patients, cited from earlier work
# [5] = Homo sapiens, A-375, A375, 48 h, read-out: IC50
# [6] = Homo sapiens, SK-MEL-28, SKMEL 28, 48 h, read-out: IC50
SMILES,IC50 (A2058 [3]; read-out: IC50) [nM],"sensitivity of the cell line compared to other cell lines (e.g. A375, Mel888) (A2058 [3])","IC50 (Mel624 [4]; Mel624, 48 h, read-out: IC50) [nM]","sensitivity of the cell line compared to other cell lines (e.g. A375, Mel888) (Mel624 [4])","IC50 (Mel10; MEL10, 48 h, read-out: IC50) [nM]","IC50 (A375; A375, 48 h, read-out: IC50) [nM]","IC50 (Mel888; Mel888, 48 h, read-out: IC50) [nM]","IC50 (SKMEL 28; SKMEL 28, 48 h, read-out: IC50) [nM]","IC50 (A2058 [3]; Homo sapiens, read-out: IC50) [nM]",IC50 (A375; [5]) [nM],IC50 (SKMEL 28; [6]) [nM],further results
O=C(O)C(Cc1ccccc1[N+](=O)[O-])=NNc1nc(-c2ccc(Cl)c(Cl)c2)cs1 (mixture of isomers) [4EGi-1],50000,more sensitive,26000,more sensitive,> 100000,> 100000,77000,> 100000,–,–,–,sensitivity of the cell line compared to the other BRAF (V600E)-mutated melanoma cell lines (A2058 [1]): more sensitive; sensitivity of the cell line compared to the other BRAF (V600E)-mutated melanoma cell lines (Mel624 [2]): more sensitive
Nc1ncnc2n[nH]c(Nc3ccc(F)cc3)c12 [CGP 57380],> 100000,less sensitive,> 100000,less sensitive,28000,35000,25000,60000,–,–,–,–
O=C(NOC[C@H](O)CO)c1ccc(F)c(F)c1Nc1ccc(I)cc1F [PD 0325901],–,less sensitive,96,less sensitive,3,–,2,–,33,10,9,–
COC(=O)[C@H]1[C@@H](O)[C@@]2(O)c3c(OC)cc(O[C@@H]4O[C@@H]([C@H](O)CO)CO[C@H]4OC)cc3O[C@@]2(c2ccc(OC)cc2)[C@@H]1c1ccccc1 [Silvestrol],–,–,–,–,–,–,–,–,–,–,–,"IC50 (A2058 [3]; Homo sapiens): 2 nM; IC50 (Mel624 [4]; 48 h): 4 nM; IC50 (Mel10; 48 h): 46 nM; IC50 (A375; Homo sapiens, A-375, 48 h): 21 nM; IC50 (Mel888; 48 h): 17 nM; IC50 (SKMEL 28; Homo sapiens, SK-MEL-28, 48 h): 3 nM"
CCCS(=O)(=O)Nc1ccc(F)c(C(=O)c2c[nH]c3ncc(-c4ccc(Cl)cc4)cc23)c1F [Vemurafenib],–,–,2000,–,> 10000,–,100,–,2400,400,400,–
CC(C)(C)c1nc(-c2cccc(NS(=O)(=O)c3c(F)cccc3F)c2F)c(-c2ccnc(N)n2)s1 [dabrafenib],–,–,–,–,–,–,–,–,–,–,–,response rate (objective responses) (melanoma): 50%; progression-free survival (melanoma; compared with chemotherapy): 5.1 months; progression-free survival hazard ratio (melanoma; versus chemotherapy): 0.30
